Values of other authors in patent US20020035459A1, “PHARMACOKINETIC-BASED DRUG DESIGN TOOL AND METHOD” (priority 1998, published 2002).

Key:
intestinal mucosa = details: permeability standards
rabbit intestinal tissue = details: donor concentration per compound; for Pe Colon: rabbit colon; for Pe Duodenum: rabbit duodenum; for Pe Ileum: rabbit ileum; for Pe Jejunum: rabbit jejunum
[1] = plasma kinetics, first order transfer

Row | Transport mechanism (intestinal mucosa) | Pe Colon (rabbit intestinal tissue) [×10⁻⁶ cm/s] | Pe Duodenum (rabbit intestinal tissue) [×10⁻⁶ cm/s] | Pe Ileum (rabbit intestinal tissue) [×10⁻⁶ cm/s] | Pe Jejunum (rabbit intestinal tissue) [×10⁻⁶ cm/s] | k21 [1] | SMILES
1 | Passive Paracellular | 5.53 | 1.73 | 4.02 | 3.54 | – | OC[C@@H](O)[C@@H](O)[C@H](O)[C@H](O)CO [mannitol]
2 | – | 3.85 | 0.3 | 2.91 | 1.31 | – | C[C@]12CCC(=O)C=C1CC[C@@H]1[C@@H]2[C@@H](O)C[C@@]2(C)[C@H]1CC[C@]2(O)C(=O)CO [hydrocortisone]
3 | – | – | – | – | – | 0.670 | Nc1nc2c(ncn2COC(CO)CO)c(=O)[nH]1.[Na] [Gancyclovir, 9-(1,3-dihydroxy-2-propoxymethyl)guanine, monosodium salt]
4 | Carrier-mediated Influx | 9.28 | 4.55 | 14.5 | 10.2 | – | O=C[C@H](O)[C@@H](O)[C@H](O)[C@H](O)CO [D-glucose]
